Data on 16 compounds can be found in PubChem BioAssay (NCI).

“And” between values parts separate entries of the source, which are not always exact repeats. Identical values can stand only once.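 Where inhibition never reached the appropriate level, the endpoint shown equals the highest concentration tested. Otherwise, values were interpolated linearly from a five-concentration, 48-hour dose response in 96-well plates. GI50 = concentration required for 50% inhibition of growth. At the TGI there is no net growth.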

Holding throughout (assay): inhibition of tumour cell growth, NCI panel, 48 h
Assay [1] has as its system BT-549 breast.
In assay [2] the test system is CCRF-CEM leukemia.
Assay [3] deals with HCT-116 colon.
Assay [4] relates to HCT-15 colon.
In assay [5] the test system is HOP-62 NSCLC.
In assay [6] the test system is IGROV1 ovarian.
Assay [7] has as its system KM12 colon.
Assay [8] deals with OVCAR-3 ovarian.
Assay [9] relates to TK-10 renal.
The test system of assay [10] is UO-31 renal.

Turning to `CC(C)/C=C1\CCC(CN(C)C)C1=O` (stereo unspecified), the TGI was determined as 7.83 µM in assay [1]; 5.34 µM in [2]; 2.5 µM in [3]; 4.68 µM in [4]; 46.3 µM in assay [5]; 11.4 µM in assay [6]. Moreover, the TGI in assay [7] stood at 4.65 µM; in assay [8], 7.97 µM; in assay [9], 5.96 µM; in assay [10] it was 16.5 µM.
As to `O=C1CC(c2c[nH]c3ccc(F)cc23)C(=O)N1` (stereo unspecified), the GI50 in assay [1], in assay [2], in assay [3], in assay [4], in assay [5] and in assay [6] was more than 100 µM in each case. For the same compound, the GI50 in assay [7], in assay [8], in assay [9] and in assay [10] was more than 100 µM each time. The TGI in [1], in assay [2], in assay [3], in assay [4], in assay [5] and in assay [6] was more than 100 µM each time. The TGI in assay [7], in assay [8], in assay [9] and in assay [10] was more than 100 µM throughout.
For the compound `COc1cc(CNCCCCCCN2C(=O)c3cccc4cccc(c34)C2=O)ccc1O`, the GI50 is 14.5 µM in assay [1]; 3.53 µM in assay [2]; 3.14 µM in assay [3]; 10.4 µM in assay [4]; 5.78 µM in assay [5]; 3.72 µM in assay [6]. Besides, the GI50 in [7] is 5.57 µM; in [8], 4.11 µM; in assay [9] it was 10.1 µM; in assay [10], 2.65 µM. Besides, the TGI was 27.9 µM in assay [1]; 29.3 µM in assay [2]; 11.2 µM in [3]; 29.6 µM in assay [4]; 19.1 µM in [5]; 16.2 µM in [6]. Besides, the TGI in assay [7] was 18.9 µM; in assay [8], 16.6 µM; in [9], 24.8 µM; in [10], 15.2 µM.
With `COc1ccc(-c2cc(=O)c3c(O)c(OC)c(OC)c(OC)c3o2)cc1OC`, the TGI is more than 100 µM in assay [1]; more than 100 µM in assay [2]; more than 100 µM in [3]; more than 100 µM in assay [4]; 82.9 µM in [5]; more than 100 µM in assay [6]. Moreover, the TGI in assay [7], in assay [8], in assay [9] and in [10] was more than 100 µM each time.
For `O=C1NC(=NCc2ccccc2Cl)S/C1=C\c1ccc2ncccc2c1`, the GI50 in assay [1] was 7.86 µM; in assay [2], 11.2 µM; in [3], 3.98 µM; in assay [4], 4.33 µM; in assay [5], 16 µM; in [6], 9.01 µM. For the same compound, the GI50 in assay [7] was more than 21.8 µM; in assay [8], 17.6 µM; in assay [9] it was 6.02 µM; in [10] it was more than 13.6 µM. Further, the TGI in assay [1], in assay [2], in assay [3], in assay [4], in assay [5] and in [6] was more than 25 µM in each case. The TGI in [7], in assay [8], in assay [9] and in assay [10] was more than 25 µM each time.
On to `CC(=O)OCC1OC(n2c(=S)n(-c3ccc([N+](=O)[O-])cc3)c(=O)c3ccccc32)C(OC(C)=O)C(OC(C)=O)C1OC(C)=O` (stereo unspecified), for which the TGI in assay [1] is 26.7 µM; in [2], 96.9 µM and > 100 µM; in [3], more than 100 µM; in [4], more than 100 µM; in assay [5], 53.7 µM and 54.7 µM; in [6], > 71 µM and 54.5 µM. Further, the TGI was > 75.4 µM and 46.9 µM in [7]; 47.5 µM and 49.8 µM in [8]; 65.2 µM and 75.1 µM in assay [9]; > 57.5 µM and 60.1 µM in assay [10]. The GI50 was 5.11 µM and 15.4 µM in assay [2]; 18.1 µM and 25.2 µM in assay [3]; 29.2 µM and 20.4 µM in assay [6]; 25.5 µM and 17.4 µM in assay [7]; 20 µM in [8]; 19.9 µM and 40.3 µM in assay [9]. Besides, the GI50 in assay [10] is 12 µM and 23.2 µM.
On to `COC(=O)NC1C(C)OC(OC2C/C=C(/C)C3C=CC4C(OC5CC(OC6CCC(OC7CC(O)C(OC8CCC(O)C(C)O8)C(C)O7)C(C)O6)C(OC(C)=O)C(C)O5)C(C)CC(C)C4C3(C)/C(O)=C3/C(=O)OC4(CC(C=O)=CC(O)C4/C=C\2C)C3=O)CC1(C)[N+](=O)[O-]` (stereo unspecified), for which the TGI was 2.18 µM in assay [1]; 4.86 µM and 1.78 µM in assay [2]; 2.05 µM and 0.289 µM in [3]; 3.4 µM and 4.26 µM in assay [4]; 1.81 µM and 0.667 µM in [5]; 8.43 µM and 3.15 µM in assay [6]. Moreover, the TGI in [7] is 2.04 µM and 0.337 µM; in [8] it was 2.7 µM and 2.12 µM; in [9] it was 6.2 µM and 1.14 µM; in assay [10] it was 3.76 µM and 0.521 µM. Besides, the GI50 was 0.0687 µM in [2]; 0.146 µM in assay [3]; 1.22 µM in [4]; 0.275 µM in [5]; 1.47 µM in [6]; 0.0714 µM in [7]. Moreover, the results for the GI50 in assay [8], in [9] and in assay [10] were 0.484 µM, 0.418 µM and 0.254 µM, respectively.
As for `O=C(O)C1=C/C(=C(/c2ccccc2)c2cc(C(=O)O)c(O)c3ccccc23)c2ccccc2C1=O`, the TGI in assay [1], in assay [2], in assay [3], in assay [4], in [5] and in assay [6] was more than 100 µM each time. Further, the TGI in assay [7], in assay [8], in [9] and in assay [10] was more than 100 µM each time.
`O=C1NC(=NCCc2ccc(F)cc2)S/C1=C\c1ccc2ncccc2c1`: the GI50 in assay [1] is more than 25 µM; in [2] it was more than 25 µM; in [3] it was 13.8 µM; in assay [4] it was more than 25 µM; in assay [5], more than 25 µM; in assay [6], more than 25 µM. Besides, the GI50 in assay [7], in assay [8], in assay [9] and in [10] was more than 25 µM in each case. The TGI in assay [1], in assay [2], in assay [3], in [4], in [5] and in [6] was more than 25 µM in each case. Moreover, the TGI in assay [7], in assay [8], in assay [9] and in assay [10] was more than 25 µM in each case.
With `CC1CC2C3CCC4=CC(=O)C=CC4(C)C3(F)C(O)CC2(C)C1(O)C(=O)COP(=O)(O)O` (stereo unspecified), the GI50 is 160 µM in assay [1]; more than 500 µM in [2]; more than 500 µM in assay [3]; more than 500 µM in [4]; more than 500 µM in [5]; more than 500 µM in assay [6]. The GI50 in [7], in assay [8], in [9] and in [10] was more than 500 µM each time. Moreover, the TGI in assay [1], in assay [2], in [3], in assay [4], in assay [5] and in assay [6] was more than 500 µM each time. Further, the TGI in assay [7], in [8], in assay [9] and in assay [10] was more than 500 µM each time.
Consider `NS(=O)(=O)c1ccc(Nc2cc(-c3ccc(O)c(F)c3)[nH]n2)cc1`, for which the GI50 in assay [1] is 8.66 µM; in [2], 13.5 µM; in assay [3], more than 25 µM; in assay [4], more than 25 µM; in assay [5], more than 25 µM; in assay [6], more than 25 µM. Moreover, the GI50 in assay [7] was 10.3 µM; in [8], 9.43 µM; in assay [9], more than 25 µM; in assay [10] it was more than 25 µM. In addition, the TGI in assay [1], in assay [2], in [3], in assay [4], in assay [5] and in assay [6] was more than 25 µM each time. Besides, the TGI in assay [7], in assay [8], in [9] and in [10] was more than 25 µM throughout.
`CCCn1c2c(c3ccccc3c1=O)C(=O)c1ccccc1-2`: the TGI was more than 100 µM in assay [1]; more than 100 µM in assay [2]; more than 100 µM in assay [3]; more than 100 µM in assay [4]; more than 79.6 µM in assay [5]; more than 100 µM in [6]. Further, the TGI in [7], in [8], in [9] and in assay [10] was more than 100 µM each time.
As to `Cc1cc(=O)oc2ccc(OC/C=C3\CCC(=O)O3)cc12`, the GI50 is 7.49 µM in assay [1]; 2.61 µM in assay [2]; 3.82 µM in assay [3]; 3.5 µM in assay [4]; 13.5 µM in assay [5]; 3.3 µM in assay [6]. Also, the GI50 in assay [7] was 7.76 µM; in [8] it was 3.59 µM; in assay [9], 1.61 µM; in [10] it was 2.09 µM. The TGI turned out to be 23.4 µM in assay [1]; 7.96 µM in assay [2]; 15.1 µM in assay [3]; 11.5 µM in assay [4]; 29.9 µM in assay [5]; 16.4 µM in assay [6]. Besides, the TGI in assay [7] was 25.5 µM; in [8], 18.4 µM; in assay [9] it was 9.23 µM; in assay [10], 10.2 µM.
`C=C1C(=O)O[C@H]2[C@H]1CC/C(COC(=O)c1cc(OC)c(OC)c(OC)c1)=C\CC[C@@]1(C)O[C@@H]21`: the GI50 in [1] was 1.06 µM; in assay [2], 0.293 µM; in assay [3] it was 0.409 µM; in [4], 0.418 µM; in [5], 2.4 µM; in assay [6], 0.477 µM. Moreover, the GI50 in assay [7] was 2.26 µM; in assay [8], 0.39 µM; in assay [9] it was 1.22 µM; in assay [10] it was 0.402 µM. For the same compound, the TGI was 2.35 µM in [1]; 2.28 µM in assay [2]; 1.48 µM in [3]; 1.82 µM in [4]; 11.5 µM in assay [5]; 2.05 µM in assay [6]. The TGI in assay [7] stood at 5.82 µM; in assay [8], 1.44 µM; in assay [9] it was 2.7 µM; in [10], 1.7 µM.
In the case of `CN1CCN(CC(=O)N(C)c2ccc(N=C(c3ccccc3)c3c(O)[nH]c4ccc(C#N)cc34)cc2)CC1`, the GI50 in [1] was 1.68 µM; in assay [2] it was 1.2 µM; in assay [3], 1.02 µM; in assay [4], 3.55 µM; in assay [5] it was 3.99 µM; in assay [6], 3.33 µM. Further, the GI50 was 0.0516 µM in [7], 3.19 µM in assay [8], 10.5 µM in [9] and 2.42 µM in assay [10]. The TGI was found to be 3.69 µM in assay [1]; 12.5 µM in assay [2]; 2.47 µM in assay [3]; 14.9 µM in assay [4]; 16.5 µM in assay [5]; 15.5 µM in [6]. Also, the TGI was determined as 6.03 µM in [7], 14.2 µM in [8], 24.5 µM in [9] and 11.4 µM in assay [10].
Consider `COc1ccc(C(O)c2cc3c(N)c(C(=O)Nc4ccc(Cl)cc4)sc3nc2C)cc1` (stereo unspecified), for which the GI50 in assay [1] is 3.42 µM; in assay [2], 2.47 µM; in [3], 2.01 µM; in [4], 0.719 µM; in assay [5], 3.24 µM; in assay [6], 3.22 µM. In addition, the GI50 is 1.64 µM in assay [7], 2 µM in assay [8], 7.85 µM in assay [9] and 3.8 µM in assay [10]. Also, the TGI in assay [1] was 21.6 µM; in assay [2], more than 100 µM; in assay [3], 14.3 µM; in assay [4], 12.9 µM; in [5] it was 19.2 µM; in assay [6], 28.6 µM. Moreover, the TGI in [7] amounted to 7.1 µM; in assay [8], 4.78 µM; in assay [9] it was 43.9 µM; in [10] it was 23 µM.
